Test in all cases: NCI-60 cell line screen, 48 h
Test [1] deals with SK-MEL-2 melanoma.
Test [2] relates to HL-60(TB) leukemia.
For test [3], the system named is HCC-2998 colon.
Test [4] deals with MCF7 breast.
Test [5] has as its system TK-10 renal.
For test [6], the system named is LOX IMVI melanoma.
For test [7], the system named is RXF 393 renal.
For test [8], the system named is SK-MEL-28 melanoma.
Test [9] has as its system OVCAR-3 ovarian.
For test [10], the system named is UACC-62 melanoma.

13 molecules from PubChem BioAssay (NCI) can be followed below.

Values joined by “and” are separate entries in the source; they are usually repeats but may differ in a detail not shown here. Identical values can stand only once.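 Where inhibition never reached the appropriate level, the endpoint shown equals the highest concentration tested. Otherwise, values were interpolated linearly from a five-concentration, 48-hour dose response in 96-well plates. GI50 marks 50% less growth. TGI: concentration producing complete growth inhibition.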

Regarding `c1ccc(-c2csc3c2-n2cccc2C3N2CCCC2)cc1` (stereo not drawn), the TGI is > 100 µM in test [1]; > 100 µM in test [2]; > 100 µM in test [3]; > 100 µM in [4]; 99.7 µM in [5]; > 100 µM in test [6]. The TGI in test [7], in [8] and in [9] was > 100 µM throughout.

In the case of `COc1ccccc1N1CCN(CCCCNC(=O)c2ccc([N+](=O)[O-])o2)CC1`, the TGI in [1] stood at 19.4 µM; in test [2], 26.1 µM; in [3], 5.71 µM; in test [4] it was 22.2 µM; in test [5] it was 18.3 µM; in [6], 16.3 µM. Also, the TGI is 25.2 µM in test [7], > 100 µM in test [8], 17.8 µM in [9] and 18.4 µM in test [10].

As to `c1ccc(CN2CCC(=NN3CCCCC3)CC2)cc1`, the TGI in [1] was > 100 µM; in [2], 43.9 µM; in test [3], > 100 µM; in test [4], > 100 µM; in [5], > 100 µM; in test [6], > 100 µM. Moreover, the TGI in [7], in [8], in test [9] and in [10] was > 100 µM each time.

Take `O=[N+]([O-])c1cc(C2(N3CCCCC3)CCCCC2)sc1Br`: the TGI in test [1] was 21.4 µM; in [2], 5.24 µM; in test [3], 3.41 µM; in test [4] it was 8.6 µM; in test [5] it was 6.61 µM; in [6], 15.1 µM. Also, the TGI in test [7] was found to be 13.2 µM; in test [8], 23.9 µM; in [9], 7.4 µM; in test [10], 23.5 µM.

As to `CC(C)C[S+]1C2=C([O-])CC(C)(C)CC2=Nc2ccccc21` (stereo not drawn), the TGI in test [1], in [2], in [3], in test [4], in test [5] and in test [6] was > 100 µM throughout. Also, the TGI in test [7], in [8], in test [9] and in test [10] was > 100 µM in each case.

For the molecule `COC(=O)C1OC(O[C@H]2CC[C@]3(C)[C@H]4CC=C5[C@@H]6CC(C)(C)CC[C@]6(C(=O)OC)CC[C@@]5(C)[C@]4(C)CC[C@H]3C2(C)C)C(O)C(O)C1O` (stereo partly drawn), the TGI in [1] amounted to 31.9 µM; in [2], 36.7 µM; in test [3] it was 20.3 µM; in [4] it was 29.2 µM; in test [6], 20 µM; in test [7], 18.2 µM. Further, the TGI in test [8] was determined as 32.7 µM; in test [9], 15.5 µM; in test [10], 31 µM.

Turning to `CC(NC(=O)Cc1ccc(OP(=O)(OCc2ccc([N+](=O)[O-])o2)N(C)CCCCCl)cc1)c1ccc(OCC2CCCCC2)c(C(N)=O)c1` (stereo not drawn), the TGI was 5.89 µM in [1]; 5.06 µM in test [2]; 2.98 µM in [3]; 6.75 µM in [4]; 15.6 µM in test [5]; 3.28 µM in test [6]. The TGI worked out at 4.74 µM in test [7], 3.33 µM in test [8], 3.75 µM in [9] and 3.28 µM in [10].

Consider `COC(=O)[C@H](CNC(=O)/C=C/c1ccc(OC(C)=O)c(OC(C)=O)c1)NC(=O)/C=C/c1ccc(OC(C)=O)c(OC(C)=O)c1`, for which the TGI in test [1], in [2], in test [3], in test [4], in test [6] and in [7] was > 100 µM in each case. Moreover, the TGI in [8], in [9] and in test [10] was > 100 µM each time.

On to `COc1ccc(/C=C2/N=C(N/N=C\C(O)C(O)C(O)CO)NC2=O)cc1` (stereo not drawn), for which the TGI in test [1], in test [2], in [3], in test [4], in test [5] and in test [6] was > 100 µM in each case. The TGI is > 100 µM in test [7]; > 100 µM in test [8]; > 100 µM and 67.8 µM in [9]. For the same molecule, the GI50 in [8] is > 100 µM and 31.3 µM; in [9] it was > 100 µM and 24.3 µM.

Regarding `Cc1ccc(C2(O)c3ccccc3C(=O)N(C)C2(O)c2ccc(C)cc2)cc1` (stereo not drawn), the TGI is > 100 µM in test [1]; 40.3 µM in test [2]; > 100 µM in [3]; > 100 µM in test [4]; > 100 µM in test [5]; > 100 µM in [6]. For the same molecule, the TGI in test [7], in test [8], in test [9] and in test [10] was > 100 µM each time.

Take `Cc1cc(C)cc(Nc2nnc3n2S(=O)(=O)c2cc(C)c(Cl)cc2S3)c1`: the TGI was 15.8 µM in test [1]; > 100 µM in test [2]; 16.6 µM in test [3]; 36 µM in [4]; 38.5 µM in test [5]; 21.3 µM in test [6]. The TGI in test [7] is 17.2 µM; in [8], > 100 µM; in [9], 17.5 µM; in [10] it was 34.9 µM.

Take `Cc1cccc2c(N)c3cccc(C(=O)NCC[N+](C)(C)Cc4ccc([N+](=O)[O-])n4C)c3nc12`: the TGI in test [1] is > 100 µM; in test [2], 29.2 µM; in test [3], 55.8 µM; in [4] it was > 62.5 µM; in [5], > 100 µM; in test [6], > 64.9 µM. Further, the TGI in test [7] was > 72.7 µM; in test [8], > 100 µM; in test [9], > 73.1 µM; in [10] it was > 79.6 µM.

`O=C(O)c1cc(N=Nc2ccc([N+](=O)[O-])cc2)ccc1O`: the TGI in test [1] is 78.8 µM; in [2] it was 73.7 µM; in test [3], 44.7 µM; in test [4] it was 87.1 µM; in [5] it was 70 µM; in [6], > 100 µM. For the same molecule, the TGI was > 100 µM in test [7], > 100 µM in test [8], 39.8 µM in test [9] and > 100 µM in [10].
